Experimental data taken from ChEMBL document CHEMBL1155003, “Halicyclamine A, a marine spongean alkaloid as a lead for anti-tuberculosis agent” (2008).
In brackets after ≈: the same amount, converted by molar mass. Activity calls are given as the source filed them. The calls are words filed in the database; no cut-off is given here.

Assays:
[1] = tested on: Mycolicibacterium smegmatis; experiment: Antitubercular activity against Mycobacterium smegmatis MC2 155 under aerobic condition after 24 hrs by MTT method; type: functional; conditions: str. MC2 155, 24 h
[2] = tested on: Mycobacterium tuberculosis; experiment: Antitubercular activity against Mycobacterium tuberculosis H37Ra under hypoxic condition after 14 days by MTT method; type: functional; conditions: 336 h
[3] = tested on: Mycobacterium tuberculosis; experiment: Antitubercular activity against Mycobacterium tuberculosis H37Ra under aerobic condition after 7 days by MTT method; type: functional; conditions: 168 h
[4] = tested on: Mycolicibacterium smegmatis; experiment: Antitubercular activity against Mycobacterium smegmatis MC2 155 under hypoxic condition after 96 hrs by MTT method; type: functional; conditions: str. MC2 155, 96 h
[5] = tested on: Mycolicibacterium fortuitum; experiment: Antitubercular activity against Mycobacterium fortuitum ATCC 9820 after 14 days; type: functional; conditions: ATCC 9820, 336 h
[6] = tested on: Mycolicibacterium smegmatis; experiment: Antitubercular activity against guaB2 gene over-expressed Mycobacterium smegmatis MC2 155 ICHO1003; type: functional; conditions: str. MC2 155
[7] = tested on: Mycolicibacterium smegmatis; experiment: Antitubercular activity against Mycobacterium smegmatis MC2 155 ICHO1001 with pMV261 transformant; type: functional; conditions: str. MC2 155
Mycolicibacterium aurum = experiment: Antitubercular activity against Mycobacterium aurum ATCC 23366 after 14 days; type: functional; conditions: ATCC 23366, 336 h
[8] = tested on: Mycobacterium tuberculosis; experiment: Antitubercular activity against Mycobacterium tuberculosis Kurono ATCC 35812 after 14 days; type: functional; conditions: 336 h
[9] = tested on: Mycolicibacterium smegmatis; experiment: Antitubercular activity against guaB1 gene over-expressed Mycobacterium smegmatis MC2 155 ICHO1002; type: functional; conditions: str. MC2 155
[10] = tested on: Mycolicibacterium smegmatis; experiment: Bactericidal activity against Mycobacterium smegmatis MC2 155 assessed as decrease in CFU at 10 ug/ml after 4 days; type: functional, organism-based; conditions: str. MC2 155
[11] = tested on: Mycobacterium tuberculosis; experiment: Antitubercular activity against Mycobacterium tuberculosis H37Rv ATCC 25618 after 14 days; type: functional; conditions: 336 h
[12] = tested on: Mycolicibacterium smegmatis; experiment: Antitubercular activity against guaB3 gene over-expressed Mycobacterium smegmatis MC2 155 ICHO1004; type: functional; conditions: str. MC2 155
Mycobacterium kansasii = experiment: Antitubercular activity against Mycobacterium kansasii ATCC 35775 after 14 days; type: functional; conditions: ATCC 35775, 336 h
Mycobacterium avium = experiment: Antitubercular activity against Mycobacterium avium ATCC 35712 after 14 days; type: functional; conditions: ATCC 35712, 336 h
[13] = tested on: Mycobacterium intracellulare; experiment: Antitubercular activity against Mycobacterium intracellular ATCC 35761 after 14 days; type: functional; conditions: ATCC 35761, 336 h
[14] = tested on: Mycobacterium tuberculosis; experiment: Bactericidal activity against Mycobacterium tuberculosis H37Rv assessed as decrease in CFU at 20 ug/ml after 11 to 28 days; type: functional

| Structure (SMILES) | MIC [1] [µg/mL] | MIC [2] [µg/mL] | MIC [3] [µg/mL] | MIC [4] [µg/mL] | MIC [5] [µg/mL] | MIC [6] [µg/mL] | MIC [7] [µg/mL] | MIC (Mycolicibacterium aurum) [µg/mL] | MIC [8] [µg/mL] | MIC [9] [µg/mL] | Activity [10] | MIC [11] [µg/mL] | MIC [12] [µg/mL] | MIC (Mycobacterium kansasii) [µg/mL] | MIC (Mycobacterium avium) [µg/mL] | MIC [13] [µg/mL] | CFU/ml [14] |
| --- | --- | --- | --- | --- | --- | --- | --- | --- | --- | --- | --- | --- | --- | --- | --- | --- | --- |
| NNC(=O)c1ccncc1 [ISONIAZID] | 2.5 (≈ 18.2 µM) | > 100 | 0.05 (≈ 0.365 µM) | 25 (≈ 182 µM) |  |  |  |  |  |  |  |  |  |  |  |  |  |
| C1=C2CCCC/C=C\C=C\CCN3CC[C@@H]4[C@H](CCCCCC/C=C\C=C/CCN(C2)C[C@H]14)C3 [HALICYCLAMINE A] | 2.5 (≈ 5.4 µM) | 5 (≈ 10.8 µM) | 5 (≈ 10.8 µM) | 2.5 (≈ 5.4 µM) | 25 (≈ 54 µM) | 2.5 (≈ 5.4 µM) | 2.5 (≈ 5.4 µM) | 6.25 (≈ 13.5 µM) | 3.13 (≈ 6.76 µM) | 2.5 (≈ 5.4 µM) | Active | 6.25 (≈ 13.5 µM) | 2.5 (≈ 5.4 µM) | 3.13 (≈ 6.76 µM) | 6.25 (≈ 13.5 µM) | 6.25 (≈ 13.5 µM) | <10 |
